From PubChem BioAssay (NCI) come the findings set out here.

Some test systems named below: HOP-62 NSCLC; 786-0 renal; OVCAR-4 ovarian; HS 578T breast; HOP-92 NSCLC; NCI/ADR-RES ovarian; IGROV1 ovarian; DU-145 prostate; PC-3 prostate; MCF7 breast.
Experiment in all cases: DTP human tumour cell line panel, 48 h

Several values for one entry are separate records, joined by “and”; a condition that tells them apart may be missing. Equal entries are not always repeated.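 Five compound concentrations were applied to cells in 96-well plates for 48 hours; endpoints were derived by simple linear interpolation of the resulting dose-response curve. Here, GI50 denotes the concentration required for 50% inhibition of growth. At the TGI there is no net growth.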

The term TGI denotes the concentration giving total growth inhibition. Read a high TGI as lower sensitivity of the cells. What is called GI50 is the concentration that inhibits growth by half.

With `CC1(C)CC(=O)C(C=NC(=S)c2ccccc2)=C(O)C1`, the concentration for total growth inhibition (TGI) with HOP-62 NSCLC, in the experiment on 786-0 renal, in the experiment on OVCAR-4 ovarian, in the experiment with HS 578T breast, with HOP-92 NSCLC and in the experiment with NCI/ADR-RES ovarian was more than 100 µM in each case. Further, the concentration for total growth inhibition (TGI) in the experiment on IGROV1 ovarian, with DU-145 prostate, in the experiment on PC-3 prostate and in the experiment on MCF7 breast was more than 100 µM throughout.

For `COc1cccc2c1C(=O)c1c(O)c3c(c(O)c1C2=O)C[C@@](O)(C(=O)CO)C[C@@H]3OC1CC(N)CC(C)O1` (stereo partly drawn), the GI50 with HOP-62 NSCLC is 0.0175 µM; in the experiment on 786-0 renal it was 0.02 µM; in the experiment on OVCAR-4 ovarian it was 0.0885 µM; in the experiment on HS 578T breast it was 0.0504 µM and 0.119 µM; with HOP-92 NSCLC, 0.0638 µM; with NCI/ADR-RES ovarian it was 2.75 µM. In addition, the concentration for 50% growth inhibition (GI50) in the experiment on IGROV1 ovarian is 0.0504 µM and 0.0436 µM; in the experiment with PC-3 prostate it was 0.0558 µM; in the experiment with MCF7 breast, 0.00536 µM. Besides, the TGI with HOP-62 NSCLC was 0.326 µM and 0.0977 µM; in the experiment on 786-0 renal it was 0.514 µM and 0.568 µM; in the experiment with OVCAR-4 ovarian, 0.456 µM and 0.413 µM; with HOP-92 NSCLC, 0.275 µM and 0.353 µM; in the experiment on NCI/ADR-RES ovarian, 28.2 µM; in the experiment on IGROV1 ovarian it was 1.25 µM and 1.6 µM. For the same compound, the TGI in the experiment on DU-145 prostate is 0.175 µM and 1.22 µM; in the experiment with PC-3 prostate it was 0.33 µM and 0.246 µM; in the experiment on MCF7 breast, 3.71 µM and 1.93 µM.

As to `O=C(Nc1ccc(Br)cc1F)c1cc(F)ccc1O`, the GI50 with HOP-62 NSCLC is 1.56 µM; in the experiment on 786-0 renal, 2.41 µM; with OVCAR-4 ovarian, 0.612 µM; with HS 578T breast, 0.405 µM; in the experiment with HOP-92 NSCLC, 0.192 µM; in the experiment with NCI/ADR-RES ovarian, 0.533 µM. In addition, the GI50 in the experiment with IGROV1 ovarian was 0.37 µM; in the experiment with DU-145 prostate, 0.698 µM; with PC-3 prostate, 1.15 µM; in the experiment with MCF7 breast, 1.29 µM. Also, the TGI with HOP-62 NSCLC was 7.82 µM; in the experiment with 786-0 renal, 7.49 µM; with OVCAR-4 ovarian, more than 27.8 µM; in the experiment with HS 578T breast, 4.39 µM; in the experiment on HOP-92 NSCLC, 0.566 µM; in the experiment with NCI/ADR-RES ovarian it was 5.4 µM. In addition, the TGI in the experiment with IGROV1 ovarian was more than 100 µM; with DU-145 prostate, 64.6 µM; with PC-3 prostate, 7.24 µM; in the experiment with MCF7 breast it was 7.14 µM.

Regarding `COC(=O)COc1ccccc1/C=C1\N=C(c2ccccc2)N(c2cc(C(F)(F)F)ccc2Cl)C1=O`, the GI50 with HOP-62 NSCLC was 45 µM; with 786-0 renal, 91.2 µM; in the experiment on OVCAR-4 ovarian, 39.5 µM; in the experiment on HS 578T breast it was 35.6 µM; in the experiment with HOP-92 NSCLC, 33.2 µM; in the experiment with NCI/ADR-RES ovarian, 45.8 µM. Besides, the GI50 with IGROV1 ovarian was 57 µM; with DU-145 prostate, 22.1 µM; in the experiment with PC-3 prostate, 32.5 µM; in the experiment on MCF7 breast, 39.1 µM. For the same compound, the TGI with HOP-62 NSCLC, in the experiment on 786-0 renal, in the experiment on OVCAR-4 ovarian, in the experiment on HS 578T breast, in the experiment on HOP-92 NSCLC and in the experiment with NCI/ADR-RES ovarian was more than 100 µM each time. For the same compound, the concentration for total growth inhibition (TGI) was more than 100 µM with IGROV1 ovarian, 47.1 µM in the experiment on DU-145 prostate, more than 100 µM with PC-3 prostate and more than 100 µM in the experiment on MCF7 breast.

For `CSC1=Nc2c(c(C)c(C)n2COC(CO)CO)C2=NC(=O)C(C)N12` (stereo not drawn), the GI50 with HOP-62 NSCLC, in the experiment on 786-0 renal, in the experiment on OVCAR-4 ovarian, in the experiment on HS 578T breast, in the experiment on HOP-92 NSCLC and in the experiment on NCI/ADR-RES ovarian was more than 100 µM throughout. For the same compound, the GI50 is 39.6 µM in the experiment on IGROV1 ovarian, more than 100 µM in the experiment with DU-145 prostate, more than 100 µM with PC-3 prostate and more than 100 µM in the experiment on MCF7 breast. Further, the concentration for total growth inhibition (TGI) in the experiment on HOP-62 NSCLC, in the experiment on 786-0 renal, in the experiment on OVCAR-4 ovarian, in the experiment with HS 578T breast, in the experiment on HOP-92 NSCLC and in the experiment on NCI/ADR-RES ovarian was more than 100 µM each time. In addition, the TGI with IGROV1 ovarian, with DU-145 prostate, in the experiment on PC-3 prostate and with MCF7 breast was more than 100 µM throughout.

As to `CC(=O)OC1COC(Oc2c(C)c3c4c(c2O)[C@@H](C)CC[C@@H]4[C@@H](C)C[C@H]3C=C(C)C)C(O)C1OC(C)=O` (stereo partly drawn), the GI50 with HOP-62 NSCLC was 20 µM; with 786-0 renal, 16.4 µM; with OVCAR-4 ovarian, 21.6 µM; with HS 578T breast, 46.8 µM; in the experiment on HOP-92 NSCLC, 16.3 µM; in the experiment with NCI/ADR-RES ovarian, 9.2 µM. The GI50 was 13.4 µM with IGROV1 ovarian, 16 µM in the experiment with DU-145 prostate, 11.3 µM in the experiment on PC-3 prostate and 17.5 µM in the experiment with MCF7 breast. Besides, the TGI is 36.1 µM with HOP-62 NSCLC; 31.8 µM in the experiment on 786-0 renal; 49.3 µM in the experiment with OVCAR-4 ovarian; more than 100 µM with HS 578T breast; 35.1 µM with HOP-92 NSCLC; 23.7 µM with NCI/ADR-RES ovarian. For the same compound, the TGI in the experiment with IGROV1 ovarian is 28.8 µM; with DU-145 prostate, 32.5 µM; in the experiment on PC-3 prostate it was 25.2 µM; with MCF7 breast, more than 100 µM.

Take `CC1(C)N=C(N)N=C(N)N1c1ccc(CCCCc2ccc(Cl)cc2S(=O)(=O)F)c(Cl)c1`: the GI50 in the experiment with HOP-62 NSCLC is 0.63 µM; in the experiment with 786-0 renal it was 0.428 µM; in the experiment with OVCAR-4 ovarian, 3.11 µM; with HS 578T breast it was 4.05 µM; in the experiment on HOP-92 NSCLC, 1.32 µM; in the experiment with NCI/ADR-RES ovarian, 5.28 µM. The GI50 was 0.192 µM with IGROV1 ovarian, 0.558 µM in the experiment on DU-145 prostate, 0.323 µM in the experiment on PC-3 prostate and 0.327 µM in the experiment on MCF7 breast. The TGI was 12.7 µM with HOP-62 NSCLC; 8.08 µM with 786-0 renal; 19.2 µM in the experiment with OVCAR-4 ovarian; 30.9 µM in the experiment with HS 578T breast; 12.6 µM with HOP-92 NSCLC; more than 100 µM in the experiment on NCI/ADR-RES ovarian. Moreover, the TGI in the experiment with IGROV1 ovarian came to 21 µM; in the experiment with DU-145 prostate, 15.8 µM; with PC-3 prostate, 16.7 µM; in the experiment on MCF7 breast, 9.49 µM.

As for `O=C(Nc1ccc2ncccc2c1)Nc1ccc2ncccc2c1`, the TGI in the experiment with HOP-62 NSCLC, with 786-0 renal, with OVCAR-4 ovarian, in the experiment on HS 578T breast, in the experiment with HOP-92 NSCLC and in the experiment on NCI/ADR-RES ovarian was more than 100 µM in each case. Also, the TGI in the experiment with IGROV1 ovarian, in the experiment on DU-145 prostate, with PC-3 prostate and with MCF7 breast was more than 100 µM throughout.
